Calls of active or inactive are those of the source.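 The calls were made as follows: active = fold shift at least 2 as potentiator or at most 0.5 as antagonist, actives on both sides; inactive = fold shift between 0.5 and 2.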
Molecular target: Metabotropic glutamate receptor 3 (Rattus norvegicus) (UniProt P31422)
Test: glutamate response shift at mGlu3 – cell-based, rat, GIRK thallium flux, selectivity assay for mGlu4 PAM optimization project, SAR follow-up (AID 623879)
Settings: rat mGlu3 cells, glutamate CRC shift, at 10 µM

Chain of Metabotropic glutamate receptor 3 (Rattus norvegicus) (P31422 whole entry, looked up): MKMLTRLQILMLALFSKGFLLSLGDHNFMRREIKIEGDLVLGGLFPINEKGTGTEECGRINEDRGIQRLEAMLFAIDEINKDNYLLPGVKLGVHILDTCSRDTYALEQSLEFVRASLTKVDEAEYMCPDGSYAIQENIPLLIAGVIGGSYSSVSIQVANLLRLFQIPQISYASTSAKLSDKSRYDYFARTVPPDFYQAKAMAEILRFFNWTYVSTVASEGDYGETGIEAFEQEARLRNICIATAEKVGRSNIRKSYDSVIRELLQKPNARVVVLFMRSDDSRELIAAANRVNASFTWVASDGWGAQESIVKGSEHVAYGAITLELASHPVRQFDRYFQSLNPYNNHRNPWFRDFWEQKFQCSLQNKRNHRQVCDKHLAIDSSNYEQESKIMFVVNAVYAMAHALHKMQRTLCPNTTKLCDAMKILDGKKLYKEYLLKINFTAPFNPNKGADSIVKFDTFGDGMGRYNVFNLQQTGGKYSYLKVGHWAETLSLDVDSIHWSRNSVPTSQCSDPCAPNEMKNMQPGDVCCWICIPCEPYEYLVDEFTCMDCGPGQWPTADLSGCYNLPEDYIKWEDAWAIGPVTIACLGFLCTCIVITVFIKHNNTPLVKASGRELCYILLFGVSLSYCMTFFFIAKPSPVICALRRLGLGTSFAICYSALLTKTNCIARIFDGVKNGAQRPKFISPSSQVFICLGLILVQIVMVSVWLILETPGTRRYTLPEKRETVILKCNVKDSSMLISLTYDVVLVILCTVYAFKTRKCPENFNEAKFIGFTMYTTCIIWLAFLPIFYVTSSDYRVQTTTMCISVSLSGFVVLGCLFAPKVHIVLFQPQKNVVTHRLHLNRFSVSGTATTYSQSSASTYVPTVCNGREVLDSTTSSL

`O=C(Nc1cccc(Cl)c1)c1ccccn1` was tested, and the fold shift was 0.897 (inactive) and the max response (measured here: glutamate max response with compound, stronger effect = higher value) was 98.7%.

— PubChem BioAssay AID623879 (Vanderbilt Specialized Chemistry Center, 2012)
